Like-named read-outs stand apart in the source and are kept apart here.
Columns and labels:
[1] = target: Full length wild-type cereblon CRBN (Homo sapiens (Human), UniProt Q96SW2); assay: fluorescence polarization (FP) assay, cereblon binding; details: read-out: IC50 value
Text: Compound activity was monitored in a fluorescence polarization (FP) homogeneous assay using 1-[5-({2-[2-(2-{[2-(2,6-dioxopiperidin-3-yl)-1,3-dioxo-2,3-dihydro-1H-isoindol-4-yl]oxy}acetamido)ethoxy]ethyl}carbamoyl)pentyl]-3,3-dimethyl-2-[(1E,3E)-5-[(2E)-1,3,3-trimethyl-5-sulfo-2,3-dihydro-1H-indol-2-ylidene]penta-1,3-dien-1-yl]-3H-indol-1-ium-5-sulfonate as a fluorescent probe. Unless otherwise stated, all reagents were purchased from Sigma Aldrich. […] Full length wild-type cereblon CRBN (80.0 nM, 10 μL) was incubated in assay buffer containing 20 mM HEPES (pH 8.0), […], 0.5 mM TCEP and 0.05% Tween 20 in the presence or absence of compound (300 nL). Inhibitors were stored as 10 mM DMSO stocks in an inert environment (low humidity, dark, low oxygen, room temperature) using the Storage Pod System. […] Following incubation at room temperature for 30 min, the assay was initiated by dispensing the probe to a final concentration of 5 nM (2.5 nL of a 20 μM stock) using the Echo ESXX. […] The FP signal was subsequently normalized to the no-compound control (i.e., DMSO). Analysis and IC50 values were derived using Dotmatics (Dotmatics UK) software.

GSPT1 = GSPT1 (Homo sapiens (Human), UniProt P15170+Q96SW2); assay: immunofluorescence assay for GSPT1 degradation in CAL-51 cells (Example 4); type: cell-based
Experimental: The representative compounds were tested in an immunofluorescence assay for their activity to bind to degrade GSPT1. CAL-51 cells were purchased from DSMZ (cat. Number ACC302), sub-cultured in 90% Dulbecco's MEM (4.5 g/L glucose, Gibco 11965) +10% heat inactivated FBS (BioConcept, 2-01F136I) and incubated at 37° C., 5% CO2. For the assay, imaging microtiterplate Cell Carrier 96 Ultra (Perkin Elmer 6055302) were pre-coated with Fibronectin (Sigma F085, 30 μl at 0.2 μg/ml) in PBS (100 μl, Gibco 14190) for 45 min at room temperature, rinsed with PBS and CAL-51 cells (30 K cells/well) were plated and let to adhere overnight. Cells were treated with compounds typically using a serial dilution ranging from 30 μM to 0.1 nM for 6 hours. Compounds were stored at 10 mM DMSO stocks. Vehicle (DMSO), positive (CC-885, 10 μM) and rescue controls (positive control plus 0.2 μM bortezomib) were also included atthis stage. Cells were subsequently rinsed with PBS and fixed in 10% Formalin solution (50 μl, Sigma HT5011)) for 20 mins at room temperature. Following three consecutive PBS washes (100 μl), cells were permeabilized in 0.1% Triton X-100 in PBS (Sigma 93443, 50 μl) for 15 mins at room temperature. Following three further PBS washes, 50 μl blocking buffer (1% BSA, Sigma A4503, in PBS) was added for 45 min for signal-to-noise reduction.
Primary antibody (human GSPT1, Sigma HPA052488) was diluted in blocking buffer (dil.1/300, 35 μl/well) and incubated with the cells overnight at 4° C. After three PBS washes, Alexa-fluor 488 coupled secondary antibodies (Invitrogen, A32731, dil.1/1000), Alexa-fluor 647-Phalloidin (Invitrogen, A22287, dil.1/200) and DAPI (Thermo, #62248, dil.1/1000) were diluted in blocking buffer and incubated with the samples for 2 hours at room temperature. After three final PBS washes, samples were conserved in 100 μl PBS in the dark, until measurement. Image acquisition was performed on the Operetta High-Content Imager (Perkin-Elmer). Fluorescence intensity of Alexa-Fluor 488 (GSPT1), Alexa-Fluor 647 (Actin) and DAPI (Nucleus) were measured. For the determination of GSPT1 DC50 values, a custom algorithm implemented in the PerkinElmer image analysis software Harmony-Acapella® was developed. After user-defined setting of adjustment parameters, the analysis was run identically without human intervention for all image fields. DAPI staining of the nuclei was used to determine the location of cells using standard nuclei detection modules. Segmentation artifacts were removed by threshold-based filters for area, roundness and intensity. The outline of the cells was determined analogously from the sum of the normalized, smoothed DAPI and Actin channel, starting from each nucleus. The Alexa-Fluor 488 (GSPT1) signal intensity in each cell was finally measured, in order to obtain a Mean intensity per cell. GSPT1 degradation (DC50) was calculated after normalization to controls and data import in CDD vault Database, using non-linear regression.

[2] = 6 hours, read-out: Activity for GSPT1 degradation, Code (DC50)
[3] = GSPT1 degradation, read-out: DC50 value

Sequence of GSPT1 (P15170 whole entry): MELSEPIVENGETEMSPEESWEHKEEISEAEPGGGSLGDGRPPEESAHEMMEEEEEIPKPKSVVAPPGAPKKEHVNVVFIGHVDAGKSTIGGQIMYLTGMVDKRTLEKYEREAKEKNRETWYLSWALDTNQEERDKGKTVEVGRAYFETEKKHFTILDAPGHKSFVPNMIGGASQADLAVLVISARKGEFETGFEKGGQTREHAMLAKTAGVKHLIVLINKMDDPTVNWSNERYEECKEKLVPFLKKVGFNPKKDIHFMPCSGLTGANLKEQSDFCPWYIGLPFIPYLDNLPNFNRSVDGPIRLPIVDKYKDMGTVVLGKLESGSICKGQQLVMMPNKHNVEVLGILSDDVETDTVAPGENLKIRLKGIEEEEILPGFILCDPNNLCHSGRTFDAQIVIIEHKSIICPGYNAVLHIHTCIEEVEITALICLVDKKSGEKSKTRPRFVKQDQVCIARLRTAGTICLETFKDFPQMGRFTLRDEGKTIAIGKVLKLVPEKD
Sequence of GSPT1 (Q96SW2 whole entry): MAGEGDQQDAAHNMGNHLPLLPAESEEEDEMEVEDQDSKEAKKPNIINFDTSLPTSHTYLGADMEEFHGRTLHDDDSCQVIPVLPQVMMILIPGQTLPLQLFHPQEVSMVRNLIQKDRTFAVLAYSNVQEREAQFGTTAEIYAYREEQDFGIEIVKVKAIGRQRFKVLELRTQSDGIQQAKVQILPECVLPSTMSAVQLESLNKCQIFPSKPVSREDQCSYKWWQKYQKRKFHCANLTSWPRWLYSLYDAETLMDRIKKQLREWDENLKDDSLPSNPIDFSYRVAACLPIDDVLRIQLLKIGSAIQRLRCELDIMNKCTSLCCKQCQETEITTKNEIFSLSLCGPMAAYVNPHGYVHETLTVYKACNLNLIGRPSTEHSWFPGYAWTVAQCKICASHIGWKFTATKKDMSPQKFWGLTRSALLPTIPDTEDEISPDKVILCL
Sequence of GSPT1 (Q16531 2-1140 partner): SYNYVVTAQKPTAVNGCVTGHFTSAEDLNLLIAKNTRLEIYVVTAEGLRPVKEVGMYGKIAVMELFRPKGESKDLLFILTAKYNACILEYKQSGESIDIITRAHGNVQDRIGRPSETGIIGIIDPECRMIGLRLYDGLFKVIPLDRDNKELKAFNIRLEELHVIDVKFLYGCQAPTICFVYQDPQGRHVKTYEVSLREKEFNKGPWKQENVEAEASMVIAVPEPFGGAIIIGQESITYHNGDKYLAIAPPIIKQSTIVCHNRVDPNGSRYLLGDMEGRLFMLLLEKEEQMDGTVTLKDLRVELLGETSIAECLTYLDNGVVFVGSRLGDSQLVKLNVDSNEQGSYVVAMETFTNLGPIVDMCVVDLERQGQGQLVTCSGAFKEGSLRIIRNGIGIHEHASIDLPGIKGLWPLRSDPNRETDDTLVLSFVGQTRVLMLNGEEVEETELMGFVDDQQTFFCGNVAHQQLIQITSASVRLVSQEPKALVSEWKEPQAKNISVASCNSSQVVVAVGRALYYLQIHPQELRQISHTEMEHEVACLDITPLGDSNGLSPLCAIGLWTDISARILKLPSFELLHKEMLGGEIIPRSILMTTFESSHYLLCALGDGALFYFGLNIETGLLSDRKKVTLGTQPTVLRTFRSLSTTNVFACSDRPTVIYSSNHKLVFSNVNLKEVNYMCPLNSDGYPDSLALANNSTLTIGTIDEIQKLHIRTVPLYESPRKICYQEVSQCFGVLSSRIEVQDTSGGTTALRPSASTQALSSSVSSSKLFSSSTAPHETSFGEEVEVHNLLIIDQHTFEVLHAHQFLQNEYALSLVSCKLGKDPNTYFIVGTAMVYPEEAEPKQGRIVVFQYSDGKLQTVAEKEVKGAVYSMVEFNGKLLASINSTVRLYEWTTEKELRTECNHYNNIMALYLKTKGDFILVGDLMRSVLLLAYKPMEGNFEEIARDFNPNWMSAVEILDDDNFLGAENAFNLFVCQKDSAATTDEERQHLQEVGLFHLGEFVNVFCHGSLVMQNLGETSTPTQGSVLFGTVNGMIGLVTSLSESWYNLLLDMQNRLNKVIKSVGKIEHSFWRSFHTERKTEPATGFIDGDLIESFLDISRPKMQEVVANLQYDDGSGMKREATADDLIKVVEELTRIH
Sequence of Full length wild-type cereblon CRBN (Q96SW2 whole entry): as the sequence (Q96SW2 whole entry) above

Row | IC50 [1] | DC50 (GSPT1; [2]) | DC50 (GSPT1; [3]) | SMILES
1 | < 1100 nM | < 30 nM | ≤ 30 nM | Cc1c(Cl)cc(NC(=O)OCc2ccc3c(c2)C(=O)N(C2CCC(=O)NC2=O)C3)cc1CN1CCOCC1 (stereo not drawn) [Compound 2]
2 | < 1100 nM | < 30 nM | ≤ 30 nM | O=C1CCC(N2Cc3ccc(COC(=O)Nc4cc(CN5CCOCC5)cc(OC(F)(F)F)c4)cc3C2=O)C(=O)N1 (stereo not drawn) [Compound 4]
3 |  | < 30 nM | ≤ 30 nM | O=C1CCC(N2Cc3ccc(COC(=O)Nc4cccc(OC(F)F)c4)cc3C2=O)C(=O)N1 (stereo not drawn) [Compound 5]
4 |  | 30 to 300 nM |  | O=C1CCC(N2Cc3ccc(COC(=O)Nc4ccc(F)c(Cl)c4)cc3C2=O)C(=O)N1 (stereo not drawn) [Compound 9]
5 |  | 30 to 300 nM |  | O=C1CCC(N2Cc3ccc(COC(=O)Nc4cc(F)cc(Cl)c4)cc3C2=O)C(=O)N1 (stereo not drawn) [Compound 12]
6 |  | > 300 nM |  | COc1ccc(Cl)cc1NC(=O)OCc1ccc2c(c1)C(=O)N(C1CCC(=O)NC1=O)C2 (stereo not drawn) [Compound 14]
7 |  | > 300 nM |  | O=C1CCC(N2Cc3ccc(COC(=O)Nc4cc(Cl)cc(OC5CCNC5)c4)cc3C2=O)C(=O)N1 (stereo not drawn) [Compound 20]
8 |  | > 300 nM |  | O=C1CCC(N2Cc3ccc(COC(=O)NC4CCCCC4)cc3C2=O)C(=O)N1 (stereo not drawn) [Compound 28]
9 |  | 30 to 300 nM |  | CCOc1cc(NC(=O)OCc2ccc3c(c2)C(=O)N(C2CCC(=O)NC2=O)C3)ccc1C (stereo not drawn) [Compound 33]
10 |  | 30 to 300 nM |  | O=C1CCC(N2Cc3ccc(COC(=O)Nc4ccc5c(c4)CCC5)cc3C2=O)C(=O)N1 (stereo not drawn) [Compound 56]
11 |  | 30 to 300 nM |  | CCc1cc(NC(=O)OCc2ccc3c(c2)C(=O)N(C2CCC(=O)NC2=O)C3)cc(C)n1 (stereo not drawn) [Compound 71]
12 |  | < 30 nM | ≤ 30 nM | O=C1CCC(N2Cc3ccc(COC(=O)Nc4ccc5c(c4)OC(F)(F)O5)cc3C2=O)C(=O)N1 (stereo not drawn) [Compound 79]
13 |  | < 30 nM | ≤ 30 nM | COc1cc(NC(=O)OCc2ccc3c(c2)C(=O)N(C2CCC(=O)NC2=O)C3)cnc1-c1ccccc1 (stereo not drawn) [Compound 90]
14 |  | < 30 nM | ≤ 30 nM | O=C1CCC(N2Cc3ccc(COC(=O)Nc4cc(CN5CCOCC5)cc(OC(F)F)c4)cc3C2=O)C(=O)N1 (stereo not drawn) [Compound 95]
15 |  | < 30 nM | ≤ 30 nM | O=C1CCC(N2Cc3ccc(COC(=O)Nc4cc(OCCN5CCOCC5)cc(OC(F)F)c4)cc3C2=O)C(=O)N1 (stereo not drawn) [Compound 96]
16 |  | < 30 nM | ≤ 30 nM | O=C1CCC(N2Cc3ccc(COC(=O)Nc4ccc(C5(F)CC5)nc4)cc3C2=O)C(=O)N1 (stereo not drawn) [Compound 109, (2-(2,6-dioxopiperidin-3-yl)-3-oxoisoindolin-5-yl)methyl (6-(1-fluorocyclopropyl)pyridin-3-yl)carbamate]
17 |  | 30 to 300 nM |  | CC(C)(C)C12CC(NC(=O)OCc3ccc4c(c3)C(=O)N(C3CCC(=O)NC3=O)C4)(C1)C2 (stereo not drawn) [Compound 120, (2-(2,6-dioxopiperidin-3-yl)-3-oxoisoindolin-5-yl)methyl (3-(tert-butyl)bicyclo[1.1.1]pentan-1-yl)carbamate]
18 |  | > 300 nM |  | Cc1cc(C)c(NC(=O)OCc2ccc3c(c2)C(=O)N(C2CCC(=O)NC2=O)C3)cc1Cl (stereo not drawn) [Compound 123, (2-(2,6-dioxopiperidin-3-yl)-3-oxoisoindolin-5-yl) methyl (5-chloro-2,4-dimethylphenyl)carbamate]
19 |  | 30 to 300 nM |  | Cc1c(F)cc(NC(=O)OCc2ccc3c(c2)C(=O)N(C2CCC(=O)NC2=O)C3)cc1F (stereo not drawn) [Compound 127, (2-(2,6-dioxopiperidin-3-yl)-3-oxoisoindolin-5-yl)methyl (3,5-difluoro-4-methylphenyl)carbamate]
20 |  | 30 to 300 nM |  | CC(C)(C)c1ccc(NC(=O)OCc2ccc3c(c2)C(=O)N(C2CCC(=O)NC2=O)C3)nc1 (stereo not drawn) [Compound 131, (2-(2,6-dioxopiperidin-3-yl)-3-oxoisoindolin-5-yl)methyl (5-(tert-butyl)pyridin-2-yl)carbamate]
21 |  | 30 to 300 nM |  | Cc1ccc(NC(=O)OCc2ccc3c(c2)C(=O)N(C2CCC(=O)NC2=O)C3)cc1F (stereo not drawn) [Compound 133, (2-(2,6-dioxopiperidin-3-yl)-3-oxoisoindolin-5-yl)methyl (3-fluoro-4-methylphenyl)carbamate]
22 |  | > 300 nM |  | O=C1CCC(N2Cc3ccc(COC(=O)Nc4ccccc4)cc3C2=O)C(=O)N1 (stereo not drawn) [Compound 138, (2-(2,6-dioxopiperidin-3-yl)-3-oxoisoindolin-5-yl)methyl phenylcarbamate]
23 |  | 30 to 300 nM |  | Cc1cc(F)c(NC(=O)OCc2ccc3c(c2)C(=O)N(C2CCC(=O)NC2=O)C3)cc1Cl (stereo not drawn) [Compound 141, (2-(2,6-dioxopiperidin-3-yl)-3-oxoisoindolin-5-yl)methyl (5-chloro-2-fluoro-4-methylphenyl)carbamate]
24 |  | 30 to 300 nM |  | CC(C)(C)c1ccc(NC(=O)OCc2ccc3c(c2)C(=O)N(C2CCC(=O)NC2=O)C3)c(F)c1 (stereo not drawn) [Compound 142, (2-(2,6-dioxopiperidin-3-yl)-3-oxoisoindolin-5-yl)methyl (4-(tert-butyl)-2-fluorophenyl)carbamate]
25 |  | 30 to 300 nM |  | Cc1cc(Cl)cc(NC(=O)OCc2ccc3c(c2)C(=O)N(C2CCC(=O)NC2=O)C3)c1 (stereo not drawn) [Compound 144, (2-(2,6-dioxopiperidin-3-yl)-3-oxoisoindolin-5-yl)methyl (3-chloro-5-methylphenyl)carbamate]
26 |  | 30 to 300 nM |  | Cc1cc(F)cc(NC(=O)OCc2ccc3c(c2)C(=O)N(C2CCC(=O)NC2=O)C3)c1 (stereo not drawn) [Compound 146, (2-(2,6-dioxopiperidin-3-yl)-3-oxoisoindolin-5-yl)methyl (3-fluoro-5-methylphenyl) carbamate]
27 |  | > 300 nM |  | CCc1nscc1NC(=O)OCc1ccc2c(c1)C(=O)N(C1CCC(=O)NC1=O)C2 (stereo not drawn) [Compound 147]
28 |  | < 30 nM | ≤ 30 nM | CC(C)(C)c1cccc(NC(=O)OCc2ccc3c(c2)C(=O)N(C2CCC(=O)NC2=O)C3)c1 (stereo not drawn) [Compound 153, (2-(2,6-dioxopiperidin-3-yl)-3-oxoisoindolin-5-yl)methyl (3-(tert-butyl)phenyl)carbamate]

Row | SMILES | IC50 [1] | DC50 (GSPT1; [2]) | DC50 (GSPT1; [3])
29 | Cc1cc(NC(=O)OCc2ccc3c(c2)C(=O)N(C2CCC(=O)NC2=O)C3)cc(F)c1C (stereo not drawn) [Compound 117] |  | 30 to 300 nM | 
30 | Cc1cc(NC(=O)OCc2ccc3c(c2)C(=O)N(C2CCC(=O)NC2=O)C3)cc(C(C)(C)C)n1 (stereo not drawn) [Compound 118] |  | < 30 nM | ≤ 30 nM
31 | Cc1cc(Cl)c(NC(=O)OCc2ccc3c(c2)C(=O)N(C2CCC(=O)NC2=O)C3)cc1Cl (stereo not drawn) [Compound 119] |  | > 300 nM | 
32 | Cc1ccc(OC(F)(F)F)cc1NC(=O)OCc1ccc2c(c1)C(=O)N(C1CCC(=O)NC1=O)C2 (stereo not drawn) [Compound 128] |  | > 300 nM | 
33 | O=C1CCC(N2Cc3ccc(COC(=O)NC4COC(c5ccccc5)OC4)cc3C2=O)C(=O)N1 (stereo not drawn) [Compound 130] |  | > 300 nM | 
34 | O=C1CCC(N2Cc3ccc(COC(=O)Nc4cc(F)c(F)c(Cl)c4)cc3C2=O)C(=O)N1 (stereo not drawn) [Compound 132] |  | 30 to 300 nM | 
35 | O=C1CCC(N2Cc3ccc(COC(=O)Nc4cc(C(F)(F)F)ns4)cc3C2=O)C(=O)N1 (stereo not drawn) [Compound 139] |  | 30 to 300 nM | 
36 | O=C1CCC(N2Cc3ccc(COC(=O)Nc4cc(OC(F)(F)F)ccc4F)cc3C2=O)C(=O)N1 (stereo not drawn) [Compound 145, (2-(2,6-dioxopiperidin-3-yl)-3-oxoisoindolin-5-yl)methyl(2-fluoro-5-(trifluoromethoxy)phenyl)carbamate] |  | 30 to 300 nM | 

— patent US11912682B2, “Isoindolinone compounds” (Monte Rosa Therapeutics, Inc., priority 2021, dated 2024)
